Literature values as cited in patent publication US10640746B2, “Synthetic methylotrophs” (UNIVERSITY OF DELAWARE, priority 2016, dated 2020).

Experiments:
Details in all cases: in vitro
[1] = system: Bacillus methanolicus MGA3 (Bme) methanol dehydrogenase 3 (Bme Mdh3, BmMdh3)
[2] = system: Bacillus stearothermophilus 2334 (Bst) methanol dehydrogenase (Bst Mdh, BsMdh)
[3] = system: Corynebacterium glutamicum R (Cgl R) alcohol dehydrogenase A (Cgl AdhA, CgAdhA; GenBank BAF55711.1; SEQ ID NO: 1)

CCO [EtOH, ethanol]
Vmax [1]: 2 µmol/min/mg
Km [2]: 0.08 mM
Km [3]: 6.8 mM
Vmax [3]: 7.8 µmol/min/mg

CO [MeOH, methanol]
Vmax [1]: 0.07 µmol/min/mg
Km [2]: 20 mM
Vmax [2]: 2.1 µmol/min/mg
Km [3]: 3 mM
Vmax [3]: 0.7 µmol/min/mg

CCCCO [n-BuOH, n-butanol]
Vmax [1]: 2.3 µmol/min/mg
Km [2]: 0.01 mM
Km [3]: 35 mM
Vmax [3]: 8.9 µmol/min/mg

CCCO [n-PrOH, propanol]
Vmax [1]: 3.5 µmol/min/mg
Km [2]: 0.02 mM
Km [3]: 7.5 mM
Vmax [3]: 7.7 µmol/min/mg
